Test results as given in patent US20220009894A1, “1,2,3,4-TETRAHYDROQUINOXALINE DERIVATIVE, PREPARATION METHOD THEREFOR AND APPLICATION THEREOF” (Abbisko Therapeutics Co., Ltd., priority 2019, published 2022).

Experiments:
[1] = target: T1, RORγt-LBD (Homo sapiens, UniProt P51449); experiment: Time-resolved fluorescence resonance energy-transfer assay (TR-FRET), co-activator peptide recruitment; format: biochemical; design: TR-FRET Biochemical Amax: unit not given here; settings: for EC50: His-RORγt-LBD 30 nM, SRC peptide 500 nM, agonistic activity, averages of one or more measurements, read-out: TR-FRET Biochemical EC50/; for TR-FRET Biochemical Amax: upper activation limit, His-RORγt-LBD, SRC peptide
T1 sequence (P51449 269-508 limits assumed): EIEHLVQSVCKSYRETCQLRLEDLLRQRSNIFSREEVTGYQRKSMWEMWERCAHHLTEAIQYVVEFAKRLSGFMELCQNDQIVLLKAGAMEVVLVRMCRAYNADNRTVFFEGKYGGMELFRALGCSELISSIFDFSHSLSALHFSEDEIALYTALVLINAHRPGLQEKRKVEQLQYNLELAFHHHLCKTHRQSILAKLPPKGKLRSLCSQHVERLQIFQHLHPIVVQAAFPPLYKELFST
Description: I. Time-Resolved Fluorescence Resonance Energy-Transfer Assay (TR-FRET)
This experiment was a screening experiment for RORγt nuclear receptor agonists based on TR-FRET technology. When His-labeled RORγt-LBD receptor binds to receptor agonists, it may increase the recruitment of biotin-labeled co-activator peptides. Europium-His-RORγt-LBD is indirectly labeled by donor (Eu) by binding to Eu-anti-His antibody. Once Eu is activated by an energy source (such as flashlight or laser), the energy will be transferred to the co-activator indirectly labeled by allophycocyanin by binding of allophycocyanin-streptavidin and biotin-labeled co-activator. • 1. 10× buffer (500 mM Tris-HCl, 500 mM KCl, and 10 mM Na-EDTA) was prepared, pH value was adjusted to 7.0. The buffer was stored at 4° C. for later use and was restored to normal temperature before experiment; • 2. The 10× buffer was diluted to 1× with pure water. Final concentration of 0.01% Triton X-100 and 1 mM DTT (dithiothreitol) were added to prepare the assay buffer; • 3. DMSO was used to prepare 1000× compound stock solution. The compound solution was serial-diluted in 5-fold for 7 concentrations from the top concentration of 1000 nM/10000 nM. Then the 10× compound solution was prepared with assay buffer. An amount of 2 μL was aliquoted into the 20 μL system; • 4. 5×RORγt-LBD protein solution was unfreezed, and a solution of 5× concentration was prepared with assay buffer to obtain a final concentration of 30 nM. The whole operation was carried out on ice; • 5. 5×SRC peptide was unfreezed, and a solution of 5× concentration was prepared with assay buffer to obtain a final concentration of 500 nM. The whole operation was carried out on ice; • 6. 4 μL/well of RORγt-LBD receptor was added into the testing wells of 384-well plate, and the same amount of assay buffer was added to the control wells of non-RORγt-LBD group; • 7. 2 μL of compound was added into each well of 384-well plate; • 8. 4 μL of SRC peptide was added into each well of 384-well plate; • 9. 2× Eu-anti-6× His/APC-Streptavidin was diluted with Lance detection buffer to a final concentration of 0.25 nM and 5 nM, respectively, and then 10 μL of 2× Eu-anti-6× His/APC-Streptavidin was added into each well of 384-well plate; • 10. The mixed solution was incubated at 4° C. overnight; • 11. On the morning of the next day, the 384-well plate was incubated at room temperature for 1 hr. Then the corresponding signal values were read with PerkinElmer EnVision at a wavelength of 665/615 […]. The agonistic activity of the corresponding compound was calculated with Graphpad Prism 7.0 software.

[2] = target: T2, RORγt (Homo sapiens, UniProt P51449); experiment: RORγt cellular reporter gene detection assay; format: cell-based; settings: 24 hrs; for EC50: HEK 293 cells co-transfected with pFN26A-RORγt-LBD and pG14.35, in presence of antagonist Ursolic acid, top concentration 50 μM; for Cellular Reporter Assay Amax: upper activation limit, HEK 293 cells, in presence of antagonist Ursolic acid;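 for Cellular Reporter Assay Amax: Ursolic Acid added as 5 µL of 20 µM medium per well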
T2 construct: The plasmid of pFN26A-RORγt-LBD and pG14.35 (Promega, Cat. No. E1370) were co-transfected into HEK 293 cells; expressed in transfected cells; host or cells: HEK 293 cells (Cat. No. GNHu18)
T2 sequence (P51449 269-508 limits assumed): T1 sequence (P51449 269-508 limits assumed)
Experimental: II. RORγt Cellular Reporter Gene Detection Assay
In this experiment, RORγt Reporter Gene Detection method was used to evaluate the activation and specificity of compounds to RORγt in cells. The plasmid of pFN26A-RORγt-LBD and pG14.35 (Promega, Cat. No. E1370) were co-transfected into HEK 293 cells (Cat. No. GNHu18). The efficacy of compounds was evaluated with the presence of an antagonist Ursolic acid (Selleck, Cat. No. S2370-100 mg). The specific experimental process was as follow: • 1. The plasmids-co-transfected cells were inoculated into a 96-well plate (Corning, Cat. No 3610) in a fresh DMEM medium (Gibco, cat. No. 1773536) containing 10% fetal bovine serum (Gibco, Cat. No. 10099-141) at 30000 cells/40 μL/well; • 2. 5 μL of medium containing 20 μM Ursolic acid was added thereto; • 3. The dose effect was evaluated by a 4-fold dilution of the test compound starting from 50 μM; • 4. 5 μL of medium containing a compound concentration of 10-fold of its final test concentration was added; • 5. After the cells were incubated at 37° C. and 5% CO2 for 24 hrs, 50 μL of detection reagent was added to detect firefly fluorescence using PerkinElmerEnVision, and 50 μL of the second detection reagent was added to detect sea kidney fluorescence; • 6. A four-parameter curve simulated in GraphPad Prism was used to determine the concentration for 50% activation (EC50) and the upper activation limit (Amax) for each compound.

Row | SMILES | EC50 [1] [nM] | TR-FRET Biochemical Amax [1] | EC50 [2] [nM] | Cellular Reporter Assay Amax [2]
1 | CC1(C)C=C(c2ccc3c(c2)N(S(=O)(=O)c2cccc(C(F)(F)F)c2)C[C@@H]2CNCCN32)CC(C)(C)O1 [Example 13, (S)-8-(2,2,6,6-tetramethyl-3,6-dihydro-2H-pyran-4-yl)-6-((3-(trifluorometh-yl)phenyl)sulfonyl)-2,3,4,4a,5,6-hexahydro-1H-pyrazino[1,2-a]quinoxaline] | 35.8 | 0.74 | 1420 | 1.7
2 | CC(=O)N1CCN2c3ccc(/C=C/c4c(Cl)cccc4C(F)(F)F)cc3N(S(=O)(=O)c3cccc(C(F)(F)F)c3)C[C@@H]2C1 [Example 14, (S,E)-1-(8-(2-chloro-6-(tri-fluoromethyl)styryl)-6-((3-(trifluoromethyl)phenyl)sul-fonyl)-1,2,4,4a,5,6-hexa-hydro-3H-pyrazino[1,2-a]quinoxalin-3-yl)ethan-1-one] | 30.5 | 0.89 | 69.7 | 3.1
3 | CS(=O)(=O)N1CCN2c3ccc(/C=C/c4c(Cl)cccc4C(F)(F)F)cc3N(S(=O)(=O)c3cccc(C(F)(F)F)c3)C[C@@H]2C1 [Example 17, (S,E)-8-(2-chloro-6-(tri-fluoromethyl)styryl)-3-(methylsulfonyl)-6-((3-(trifluoromethyl)phenyl)sulfonyl)-2,3,4,4a,5,6-hexahydro-1H-pyrazino [1,2-a]quinoxaline] | 29.6 | 0.82 | 603 | 4.2
4 | O=C(O)CN1CCN2c3ccc(/C=C/c4c(Cl)cccc4C(F)(F)F)cc3N(S(=O)(=O)c3cccc(C(F)(F)F)c3)C[C@@H]2C1 [Example 20, (S,E)-2-(8-(2-chloro-6-(trifluoro-methyl)styryl)-6-((3-(tri-fluoromethyl)phenyl)sulfonyl)-1,2,4,4a,5,6-hexahydro-3H-pyrazino[1,2-a]quinoxalin-3-yl)acetic acid] | 32 | 1.01 | 418 | 6.3

Compounds with a lower EC50 [1], results first:

Row | EC50 [1] [nM] | TR-FRET Biochemical Amax [1] | EC50 [2] [nM] | Cellular Reporter Assay Amax [2] | SMILES
5 | 25 | 0.83 | 134 | 3.2 | CC(=O)N1CCN2c3ccc(/C=C(\C)c4c(F)cccc4Cl)cc3N(S(=O)(=O)c3cccc(C(F)(F)F)c3)C[C@@H]2C1 [Example 15, (S,E)-1-(8-(2-(2-chloro-6-fluorophenyl)prop-1-en-1-yl)-6-((3-(trifluoromethyl)phenyl)sulfonyl)-1,2,4,4a,5,6-hexahydro-3H-pyrazino [1,2-a]quinoxalin-3-yl)ethan-1-one]
6 | 17.8 | 0.97 | 25.7 | 2.0 | CC1(C)C=C(c2ccc3c(c2)N(S(=O)(=O)c2cccc(C(F)(F)F)c2)C[C@@H]2CN(S(C)(=O)=O)CCN32)CC(C)(C)O1 [Example 19, (S)-3-(methylsulfonyl)-8-(2,2,6,6-tetramethyl-3,6-dihydro-2H-pyran-4-yl)-6-((3-(trifluorometh-yl)phenyl)sulfonyl)-2,3,4,4a,5,6-hexahydro-1H-pyrazino[1,2-a]quinoxaline]
7 | 15.1 | 0.62 | 178 | 4.3 | C/C(=C\c1ccc2c(c1)N(S(=O)(=O)c1cccc(C(F)(F)F)c1)C[C@@H]1CN(S(C)(=O)=O)CCN21)c1c(F)cccc1Cl [Example 18, (S,E)-8-(2-(2-chloro-6-fluorophenyl)prop-1-en-1-yl)-3-(methylsulfonyl)-6-((3-(trifluoromethyl)phenyl)sulfonyl)-2,3,4,4a, 5,6-hexahydro-1H-pyrazino[1,2-a]quinoxaline]
8 | 9.52 | 0.78 | 59 | 2.0 | CC(=O)N1CCN2c3ccc(C4=CC(C)(C)OC(C)(C)C4)cc3N(S(=O)(=O)c3cccc(C(F)(F)F)c3)C[C@@H]2C1 [Example 16, (S)-1-(8-(2,2,6,6-tetramethyl-yl-3,6-dihydro-2H-pyran-4-yl)-6-((3-(trifluoromethyl)phenyl)sulfonyl)-1,2,4,4a, 5,6-hexahydro-3H-pyrazino [1,2-a]quinoxalin-3-yl) ethan-1-one]
